Measured values reported in ChEMBL document CHEMBL2176897, “Synthesis and biological evaluation (in vitro and in vivo) of cyclic arginine-glycine-aspartate (RGD) peptidomimetic-paclitaxel conjugates targeting integrin αVβ3” (J Med Chem, 2012).
Active and inactive are the calls of the source. The rule behind the calls is not given here.

Key:
[1] = Half life in mouse plasma at 10 uM by HPLC analysis; assay type: ADME, cell-free
[2] = Antitumor activity against cisplatin-resistant human IGROV1/Pt1 cells overexpressing integrin alphaVbeta3 receptors xenografted in athymic Swiss mouse assessed as tumor volume inhibition at 30 mg/kg, iv administered every 4 days for 4 times measured after 10 days relative to control; assay type: functional; conditions: IGROV-1
[3] = Solubility of the compound in 0.9% NaCl in H2O/Cremophor EL/ethanol 90:5:5 v/v at 1.92 mM after 2 days by HPLC analysis; assay type: physicochemical; conditions: 48 h, 1920 µM
[4] = Cytostatic activity against human dermal fibroblasts assessed as growth inhibition at 64 to 1000 nM after 72 hrs by coulter counter analysis; conditions: skin fibroblast, 1 µM
IGROV-1 [5] = test: Cytotoxicity against human IGROV1 cells after 72 hrs by coulter counter analysis; assay type: functional, cell-based; conditions: IGROV-1, 72 h
[6] = Half life in human plasma at 10 uM by HPLC analysis; assay type: ADME, cell-free
Integrin alpha-V/beta-3 = Integrin alpha-V/beta-3 (Homo sapiens, UniProt P05106+P06756); test: Competitive inhibition of biotinylated vitronectin to integrin alphaVbeta3 receptor after 3 hrs by microplate reader analysis; assay type: protein-complex assay
[7] = Antitumor activity against cisplatin-resistant human IGROV1/Pt1 cells overexpressing integrin alphaVbeta3 receptors xenografted in athymic Swiss mouse assessed as tumor volume inhibition at 15 mg/kg, iv administered every 4 days for 4 times measured after 10 days relative to control; assay type: functional; conditions: IGROV-1
PANC-1 = test: Cytotoxicity against human PANC1 cells after 72 hrs by coulter counter analysis; assay type: functional, cell-based; conditions: PANC-1, 72 h
[8] = Stability of the compound in 0.9% NaCl in H2O/Cremophor EL/ethanol 90:5:5 v/v at 1.92 mM after 2 days by HPLC analysis; assay type: physicochemical; conditions: 48 h, 1920 µM
[9] = Solubility of the compound in 0.9% NaCl in H2O/Cremophor EL/ethanol 90:5:5 v/v at 1.28 mM measured for 1 week by HPLC analysis; assay type: physicochemical; conditions: 168 h, 1280 µM
MIA PaCa-2 = test: Cytotoxicity against human MIAPaCa2 cells after 72 hrs by coulter counter analysis; assay type: functional, cell-based; conditions: MIA PaCa-2, 72 h
IGROV-1 [10] = test: Antitumor activity against cisplatin-resistant human IGROV1/Pt1 cells overexpressing integrin alphaVbeta3 receptors xenografted in athymic Swiss mouse assessed as absence of disease at 30 mg/kg, iv administered every 4 days for 4 times measured up to 10 days; assay type: functional, organism-based; parameters: dose 30 mg/kg
IGROV-1 [11] = test: Cytotoxicity against cisplatin-resistant human IGROV1/Pt1 cells after 72 hrs by coulter counter analysis; assay type: functional, cell-based; conditions: IGROV-1, 72 h
Integrin alpha-V/beta-5 = Integrin alpha-V/beta-5 (Homo sapiens, UniProt P06756+P18084); test: Competitive inhibition of biotinylated vitronectin to integrin alphaVbeta5 receptor after 3 hrs by microplate reader analysis; assay type: protein-complex assay
[12] = Stability of the compound in 0.9% NaCl in H2O/Cremophor EL/ethanol 90:5:5 v/v at 1.28 mM measured for 1 week by HPLC analysis; assay type: physicochemical; conditions: 168 h, 1280 µM
[13] = Selectivity ratio of IC50 for integrin alphaVbeta5 receptor to IC50 for integrin alphaVbeta3 receptor
Mus musculus [14] = test: Toxicity in athymic Swiss mouse xenografted with cisplatin-resistant human IGROV1/Pt1 cells overexpressing integrin alphaVbeta3 receptors assessed as body weight loss at 15 mg/kg, iv administered every 4 days for 4 times; assay type: organism-based, IGROV-1; parameters: dose 15 mg/kg, route intravenous; conditions: in vivo, 96 h
IGROV-1 [15] = test: Induction of abberant mitosis in cisplatin-resistant human IGROV1/Pt1 cells overexpressing integrin alphaVbeta3 receptors xenografted in athymic Swiss mouse at 30 mg/kg, iv measured 24 hrs post second treatment by hematoxylin and eosin staining; assay type: functional, organism-based; parameters: dose 30 mg/kg
[16] = Antitumor activity against cisplatin-resistant human IGROV1/Pt1 cells overexpressing integrin alphaVbeta3 receptors xenografted in athymic Swiss mouse assessed as tumor killing at 30 mg/kg, iv administered every 4 days for 4 times; assay type: functional, IGROV-1
IGROV-1 [17] = test: Antitumor activity against cisplatin-resistant human IGROV1/Pt1 cells overexpressing integrin alphaVbeta3 receptors xenografted in athymic Swiss mouse assessed as disappearance of tumor lasting at 15 mg/kg, iv administered every 4 days for 4 times measured up to 10 days; assay type: functional, organism-based; parameters: dose 15 mg/kg
Mus musculus [18] = test: Toxicity in athymic Swiss mouse xenografted with cisplatin-resistant human IGROV1/Pt1 cells overexpressing integrin alphaVbeta3 receptors assessed as body weight loss at 30 mg/kg, iv administered every 4 days for 4 times; assay type: organism-based, IGROV-1; parameters: dose 30 mg/kg, route intravenous; conditions: in vivo, 96 h
SK-OV-3 = test: Cytotoxicity against human SKOV3 cells after 72 hrs by coulter counter analysis; assay type: functional, cell-based; conditions: SK-OV-3, 72 h
U2OS = test: Cytotoxicity against human U2OS cells after 72 hrs by coulter counter analysis; assay type: functional, cell-based
IGROV-1 [19] = test: Induction of abberant mitosis in cisplatin-resistant human IGROV1/Pt1 cells overexpressing integrin alphaVbeta3 receptors xenografted in athymic Swiss mouse at 30 mg/kg, iv measured 24 hrs post fourth treatment by hematoxylin and eosin staining; assay type: functional, organism-based; parameters: dose 30 mg/kg
[20] = Antitumor activity against cisplatin-resistant human IGROV1/Pt1 cells overexpressing integrin alphaVbeta3 receptors xenografted in athymic Swiss mouse assessed as tumor killing at 15 mg/kg, iv administered every 4 days for 4 times; assay type: functional, IGROV-1
[21] = Half life of the compound in glucose phosphate buffer at pH 7; assay type: physicochemical

In the case of `CC(=O)O[C@H]1C(=O)[C@@]2(C)[C@H]([C@H](OC(=O)c3ccccc3)[C@]3(O)C[C@H](OC(=O)[C@H](OC(=O)CCC(=O)NCc4ccc(CN5C(=O)[C@H]6CC(=O)N[C@@H](CCCNC(=N)N)C(=O)NCC(=O)N[C@@H](CC(=O)O)C(=O)NC[C@H]5C(=O)N6)cc4)[C@@H](NC(=O)c4ccccc4)c4ccccc4)C(C)=C1C3(C)C)[C@]1(OC(C)=O)CO[C@@H]1C[C@@H]2O`, the half-life at 10 µM [1] is reported as 2.75 h, the inhibition in vivo at 30 mg/kg [2] is reported as 85% and the solubility [3] is reported as “Insoluble”. For the same compound, the “growth inhibition (GI)” value [4] was “Non-toxic”, the IC50 (IGROV-1 [5]) was 61.3 nM and the half-life at 10 µM [6] was 2.38 h. For the same compound, the IC50 (Integrin alpha-V/beta-3) was 5.2 nM, the inhibition in vivo at 15 mg/kg [7] was 64% and the IC50 (PANC-1) was 2.4 nM. The Stability [8] was “Unstable”, the solubility [9] was “soluble” and the IC50 (MIA PaCa-2) was 2.3 nM. For the same compound, the Activity (IGROV-1 [10]) was “Active”, the IC50 (IGROV-1 [11]) was 4.9 nM and the IC50 (Integrin alpha-V/beta-5) was 219 nM. For the same compound, the Stability [12] was “Stable”, the Ratio IC50 [13] was 20 and the Activity (Mus musculus [14]) was 0%. For the same compound, the Activity (IGROV-1 [15]) was “Active”, the LCK [16] was 1.4 and the Activity (IGROV-1 [17]) was “Active”. It also gave an Activity (Mus musculus [18]) of 3%, an IC50 (SK-OV-3) of 1.2 nM and an IC50 (U2OS) of 12.8 nM. The Activity (IGROV-1 [19]) was “Active” and the LCK [20] was 0.3.
In the case of `N=C(N)NCCC[C@@H]1NC(=O)C[C@@H]2C(=O)N(Cc3ccccc3)[C@@H](CNC(=O)[C@H](CC(=O)O)NC(=O)CNC1=O)C(=O)N2Cc1ccccc1` (stereo in doubt; 7b), the IC50 (Integrin alpha-V/beta-3) is reported as 0.2 nM.
`N=C(N)NCCC[C@@H]1NC(=O)C[C@@H]2C(=O)N(Cc3ccccc3)[C@@H](CNC(=O)[C@H](CC(=O)O)NC(=O)CNC1=O)C(=O)N2Cc1ccccc1` (stereo in doubt; 7a) gave an IC50 (Integrin alpha-V/beta-3) of 0.2 nM.
With `CC(=O)O[C@H]1C(=O)[C@@]2(C)[C@H]([C@H](OC(=O)c3ccccc3)[C@]3(O)C[C@H](OC(=O)[C@H](OC(=O)CCC(=O)NCc4ccc(CN5C(=O)[C@@H]6CNC(=O)[C@H](CC(=O)O)NC(=O)CNC(=O)[C@H](CCCNC(=N)N)NC(=O)C[C@@H]5C(=O)N6)cc4)[C@@H](NC(=O)c4ccccc4)c4ccccc4)C(C)=C1C3(C)C)[C@]1(OC(C)=O)CO[C@@H]1C[C@@H]2O` the “growth inhibition (GI)” value [4] was “Non-toxic”, the IC50 (IGROV-1 [5]) was 48.2 nM and the IC50 (Integrin alpha-V/beta-3) was 1.1 nM. For the same compound, the IC50 (PANC-1) was 3.5 nM, the IC50 (MIA PaCa-2) was 2.5 nM and the IC50 (IGROV-1 [11]) was 2.4 nM. The IC50 (Integrin alpha-V/beta-5) was 22 nM, the IC50 (SK-OV-3) was 2.4 nM and the IC50 (U2OS) was 5.7 nM.
In the case of `N=C(N)NCCC[C@@H]1NC(=O)C[C@H]2C(=O)N[C@H](CNC(=O)[C@H](CC(=O)O)NC(=O)CNC1=O)C(=O)N2Cc1ccccc1`, the IC50 (Integrin alpha-V/beta-3) is reported as 7.6 nM, the IC50 (Integrin alpha-V/beta-5) is reported as 216 nM and the Ratio IC50 [13] is reported as 20.
With `CC(=O)O[C@H]1C(=O)[C@@]2(C)[C@H]([C@H](OC(=O)c3ccccc3)[C@]3(O)C[C@H](OC(=O)[C@H](OC(=O)CCC(=O)NCc4ccc(CN5C(=O)[C@@H]6CC(=O)N[C@@H](CCCNC(=N)N)C(=O)NCC(=O)N[C@@H](CC(=O)O)C(=O)NC[C@@H]5C(=O)N6)cc4)[C@@H](NC(=O)c4ccccc4)c4ccccc4)C(C)=C1C3(C)C)[C@]1(OC(C)=O)CO[C@@H]1C[C@@H]2O` the “growth inhibition (GI)” value [4] was “Non-toxic”, the IC50 (IGROV-1 [5]) was 17.7 nM and the IC50 (Integrin alpha-V/beta-3) was 8.5 nM. It also gave an IC50 (PANC-1) of 5.8 nM, an IC50 (MIA PaCa-2) of 2 nM and an IC50 (IGROV-1 [11]) of 18.7 nM. The IC50 (Integrin alpha-V/beta-5) was 518 nM, the Ratio IC50 [13] was 20 and the IC50 (SK-OV-3) was 1.6 nM. The IC50 (U2OS) was 2.2 nM.
`N=C(N)NCCC[C@@H]1NC(=O)C[C@H]2C(=O)N[C@H](CNC(=O)[C@H](CC(=O)O)NC(=O)CNC1=O)C(=O)N2Cc1ccc(CNC(=O)CCC(=O)O)cc1` gave a Ratio IC50 [13] of 20.
Work on `CC(=O)O[C@H]1C(=O)[C@@]2(C)[C@H]([C@H](OC(=O)c3ccccc3)[C@]3(O)C[C@H](OC(=O)[C@H](OC(=O)CCC(=O)N[C@@H](CCC(=O)NCCCC[C@@H]4NC(=O)[C@@H](Cc5ccccc5)NC(=O)[C@H](CC(=O)O)NC(=O)CNC(=O)[C@H](CCCNC(=N)N)NC4=O)C(=O)NCCCC[C@@H]4NC(=O)[C@@H](Cc5ccccc5)NC(=O)[C@H](CC(=O)O)NC(=O)CNC(=O)[C@H](CCCNC(=N)N)NC4=O)[C@@H](NC(=O)c4ccccc4)c4ccccc4)C(C)=C1C3(C)C)[C@]1(OC(C)=O)CO[C@@H]1C[C@@H]2O` yielded a half-life [21] of 2 h.
With `N=C(N)NCCC[C@@H]1NC(=O)C[C@H]2C(=O)N(Cc3ccccc3)[C@H](CNC(=O)[C@H](CC(=O)O)NC(=O)CNC1=O)C(=O)N2Cc1ccccc1` the IC50 (Integrin alpha-V/beta-3) was 0.2 nM.
